The values below come from ChEMBL document CHEMBL1201862, “PubChem BioAssay data set” (2004).

The structures appear in SMILES notation. Calls of active or inactive are those of the source. Cut-off read from the data, not from the text of the source, for most assays here: actives have a measured IC50 and inactives only a lower limit.

A short description of assay [1]: RKO cell viability reduction, dose response, CellTiter-Glo luminescence (AID 1117322). Format: functional. On the technique in general: In ATP-based viability assays light output follows the ATP content of the culture.
Assay [2] has as its target T1, Mannose-6-phosphate isomerase (Homo sapiens, UniProt P34949).
T1 sequence (P34949 whole entry): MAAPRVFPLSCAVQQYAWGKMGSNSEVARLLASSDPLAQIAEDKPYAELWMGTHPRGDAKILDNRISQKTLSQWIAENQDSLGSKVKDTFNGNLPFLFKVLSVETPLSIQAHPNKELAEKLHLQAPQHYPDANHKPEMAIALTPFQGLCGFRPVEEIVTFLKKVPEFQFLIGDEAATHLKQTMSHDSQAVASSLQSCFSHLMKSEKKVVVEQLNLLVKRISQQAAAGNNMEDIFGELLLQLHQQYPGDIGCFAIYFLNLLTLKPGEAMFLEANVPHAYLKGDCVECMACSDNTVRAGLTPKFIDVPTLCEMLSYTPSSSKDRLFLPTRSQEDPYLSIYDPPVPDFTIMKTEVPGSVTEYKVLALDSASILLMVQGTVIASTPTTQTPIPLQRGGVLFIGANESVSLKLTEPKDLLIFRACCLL
The assay can be described thus: MPI enzyme activity inhibition – biochemical, fluorescence intensity, coupled assay, primary screen (AID 1209).

In assay [3] the target is T1, Mannose-6-phosphate isomerase. The assay can be described thus: MPI inhibition at elevated mannose 6-phosphate – biochemical, fluorescence intensity, high mannose 6-phosphate, primary screen (AID 1220).
In assay [4] the target is T2, Apoptotic protease-activating factor 1 (Homo sapiens, UniProt O14727).
T2 sequence (O14727 whole entry): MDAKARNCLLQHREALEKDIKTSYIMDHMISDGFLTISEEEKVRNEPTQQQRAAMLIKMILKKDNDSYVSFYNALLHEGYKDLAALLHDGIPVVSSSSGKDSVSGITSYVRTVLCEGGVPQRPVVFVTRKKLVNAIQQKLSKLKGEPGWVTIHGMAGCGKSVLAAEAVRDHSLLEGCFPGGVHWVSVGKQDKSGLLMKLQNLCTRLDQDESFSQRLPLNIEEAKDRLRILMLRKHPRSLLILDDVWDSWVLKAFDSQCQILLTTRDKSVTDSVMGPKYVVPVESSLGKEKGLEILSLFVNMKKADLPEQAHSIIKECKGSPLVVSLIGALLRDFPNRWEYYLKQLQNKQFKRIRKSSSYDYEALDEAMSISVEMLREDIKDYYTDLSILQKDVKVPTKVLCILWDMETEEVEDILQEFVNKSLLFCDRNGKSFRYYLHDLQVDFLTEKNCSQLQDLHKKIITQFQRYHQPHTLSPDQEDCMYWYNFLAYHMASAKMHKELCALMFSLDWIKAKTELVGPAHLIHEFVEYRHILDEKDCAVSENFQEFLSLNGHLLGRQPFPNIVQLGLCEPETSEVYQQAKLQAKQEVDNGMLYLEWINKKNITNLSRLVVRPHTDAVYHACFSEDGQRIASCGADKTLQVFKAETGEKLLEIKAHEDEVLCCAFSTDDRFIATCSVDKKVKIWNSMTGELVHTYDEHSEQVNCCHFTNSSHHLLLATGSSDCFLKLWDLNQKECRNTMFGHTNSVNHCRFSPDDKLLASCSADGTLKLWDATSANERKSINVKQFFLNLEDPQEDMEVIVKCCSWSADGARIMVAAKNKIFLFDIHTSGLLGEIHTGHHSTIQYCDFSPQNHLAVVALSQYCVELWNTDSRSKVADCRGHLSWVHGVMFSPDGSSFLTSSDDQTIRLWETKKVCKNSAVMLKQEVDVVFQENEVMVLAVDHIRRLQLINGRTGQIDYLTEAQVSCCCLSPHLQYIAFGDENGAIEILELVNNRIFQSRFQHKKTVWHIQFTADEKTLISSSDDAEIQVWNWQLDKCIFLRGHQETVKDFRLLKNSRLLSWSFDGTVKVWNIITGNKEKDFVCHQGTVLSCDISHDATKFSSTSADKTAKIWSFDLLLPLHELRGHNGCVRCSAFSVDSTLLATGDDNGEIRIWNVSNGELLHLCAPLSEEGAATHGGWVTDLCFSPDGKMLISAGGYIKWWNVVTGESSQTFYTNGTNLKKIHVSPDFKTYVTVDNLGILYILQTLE
It counts as functional.

For assay [5], the target named is T3, Sentrin-specific protease 7 (Homo sapiens, UniProt Q9BQF6).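 Note: Luminescence-based dose-response confirmation of ultra-high-throughput screening hits, measuring inhibition of SENP7.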
T3 sequence (Q9BQF6 whole entry): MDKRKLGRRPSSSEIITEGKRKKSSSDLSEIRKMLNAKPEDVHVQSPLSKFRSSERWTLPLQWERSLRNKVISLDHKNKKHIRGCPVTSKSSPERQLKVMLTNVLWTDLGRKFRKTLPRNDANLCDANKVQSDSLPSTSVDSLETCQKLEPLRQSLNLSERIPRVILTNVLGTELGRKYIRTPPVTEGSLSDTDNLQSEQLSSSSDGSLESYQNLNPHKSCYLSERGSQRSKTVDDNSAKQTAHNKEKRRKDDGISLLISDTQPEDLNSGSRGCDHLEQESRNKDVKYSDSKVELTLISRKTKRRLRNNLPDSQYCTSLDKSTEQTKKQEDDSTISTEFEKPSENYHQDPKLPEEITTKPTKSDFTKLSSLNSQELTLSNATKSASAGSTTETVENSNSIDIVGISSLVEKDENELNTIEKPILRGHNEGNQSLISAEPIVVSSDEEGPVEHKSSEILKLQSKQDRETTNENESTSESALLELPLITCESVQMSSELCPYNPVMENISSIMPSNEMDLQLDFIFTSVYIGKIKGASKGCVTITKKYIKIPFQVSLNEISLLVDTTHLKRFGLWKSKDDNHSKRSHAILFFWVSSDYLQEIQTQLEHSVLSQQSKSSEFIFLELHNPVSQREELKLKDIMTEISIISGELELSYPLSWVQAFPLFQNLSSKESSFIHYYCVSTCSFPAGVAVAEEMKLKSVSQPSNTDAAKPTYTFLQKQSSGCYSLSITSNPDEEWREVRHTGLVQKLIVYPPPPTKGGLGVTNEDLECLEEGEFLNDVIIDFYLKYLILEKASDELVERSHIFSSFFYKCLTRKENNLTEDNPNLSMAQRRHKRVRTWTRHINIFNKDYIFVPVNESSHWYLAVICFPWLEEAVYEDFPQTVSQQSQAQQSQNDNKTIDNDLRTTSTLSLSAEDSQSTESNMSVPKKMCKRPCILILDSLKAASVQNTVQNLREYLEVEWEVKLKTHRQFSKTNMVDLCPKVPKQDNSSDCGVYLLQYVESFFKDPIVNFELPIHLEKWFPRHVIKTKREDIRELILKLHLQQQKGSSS
Format: functional.

Broadly, the IC50 is the concentration that gives 50% inhibition. Take `Cc1cc2nc3ccc(N(C)C)cc3[s+]c2cc1N` [TOLONIUM CHLORIDE]: the IC50 in assay [1] was 0.996 µM (active).

With `Oc1ccc(/C=N/Nc2cc(N3CCCC3)nc(N3CCCC3)n2)cc1O`, the IC50 in assay [2] is > 50 µM (not active); in assay [3] it was > 50 µM (not active); in assay [4], 2.56 µM (active).

With `CCCOc1cc2c(C#N)c(N3CCCC3)nc(N)c2c(N)n1`, the IC50 is 4.45 µM (active) in assay [5] and 15 µM (active) in assay [4].
